Results: US10941153B2, “Substituted phenethylamine derivatives” (REGENTS OF THE UNIVERSITY OF MINNESOTA, priority 2018, dated 2021)
Blank lines part the entries; values can stand above or below the molecule they belong to.

What was measured:
5-HT2B receptor = 5-HT2B receptor (Homo sapiens, UniProt P41595); experiment: PDSP GPCR binding affinity, 5-HT2B
Text: (§1) In particular, the Ki (nM) value is provided. […] FIGS. 14-15 are graphical views of Log P vs. Ki, 5-HT2B receptor and Log P vs. Ki, sigma-1 receptor, respectively, summarizing the data presented in Table 6, according to one or more embodiments of the present disclosure. Assay data for compound 53545 against 5-HT7A receptor is presented in FIG. 18 and Tables 8-9 provided below:
Assay data for compound 53529 against 5-HT2B receptor is presented in FIG. 22 and Tables 12-13 provided below: […]

[1] = system: human GPCR (serotonin, adrenergic, dopamine, histamine, muscarinic, opioid, sigma and others); experiment: PDSP broad GPCR screen; conditions: wider array of GCPR, Table 5
Experimental: The G-Protein-coupled receptor (GPCR) binding affinity of the compounds of the present disclosure was assessed through the Psychoactive Drug Screening Program.
An initial screen of three primary amines was submitted. […] The molecules were screened across a wide range of human GPCR including serotonin (5-HT), α- and β-adrenergic (Alpha and Beta), dopamine (D), histamine (H), muscarinic (M), opioid (OR), sigma (σ), and others (Table 1).

5-HT7 receptor = 5-HT7 receptor (Homo sapiens, UniProt P34969); experiment: PDSP GPCR binding affinity, 5-HT7; conditions: for 5-HT7 potency, in words: relative to compound 4i
Chain of 5-HT7 receptor (P34969 1-445 isoform P34969-2): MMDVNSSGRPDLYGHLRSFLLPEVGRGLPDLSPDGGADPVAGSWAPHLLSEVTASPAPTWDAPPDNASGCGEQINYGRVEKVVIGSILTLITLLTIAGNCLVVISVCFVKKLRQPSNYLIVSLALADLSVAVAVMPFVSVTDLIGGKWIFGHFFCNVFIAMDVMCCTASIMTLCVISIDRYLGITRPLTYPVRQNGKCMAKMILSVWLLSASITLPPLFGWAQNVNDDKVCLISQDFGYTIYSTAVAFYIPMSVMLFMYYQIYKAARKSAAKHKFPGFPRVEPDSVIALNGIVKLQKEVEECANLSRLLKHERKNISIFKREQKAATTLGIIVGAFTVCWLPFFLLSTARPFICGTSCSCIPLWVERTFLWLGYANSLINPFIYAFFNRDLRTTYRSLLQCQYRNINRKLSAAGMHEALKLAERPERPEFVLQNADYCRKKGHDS
Text: as §1, with “below: […]” for “below:”

5-HT1A receptor = target: T1, 5-HT1A receptor (Homo sapiens, UniProt P08908); experiment: PDSP GPCR binding affinity, 5-HT1A
T1 sequence (P08908 1-422): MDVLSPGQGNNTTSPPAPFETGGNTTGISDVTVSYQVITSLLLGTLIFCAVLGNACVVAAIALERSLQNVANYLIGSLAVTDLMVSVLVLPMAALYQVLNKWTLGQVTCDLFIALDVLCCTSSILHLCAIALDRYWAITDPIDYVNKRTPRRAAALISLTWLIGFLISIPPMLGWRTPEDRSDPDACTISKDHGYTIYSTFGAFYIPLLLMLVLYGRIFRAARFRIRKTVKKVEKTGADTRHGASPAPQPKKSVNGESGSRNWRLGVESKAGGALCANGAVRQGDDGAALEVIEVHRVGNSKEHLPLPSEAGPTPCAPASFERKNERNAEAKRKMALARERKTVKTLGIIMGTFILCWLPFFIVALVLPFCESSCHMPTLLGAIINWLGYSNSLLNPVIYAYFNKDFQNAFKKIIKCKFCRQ
Text: as §1, with “below: […]” for “below:”

σ1 receptor = target: T2, σ1 receptor (UniProt Q99720); experiment: PDSP binding affinity, sigma-1; set-up: species or system human
T2 construct: Ki, Sigma-1; σ1 potency and selectivity, in words; other: relative to compound 4e
Text: Assay data for compound 53558 against sigma-1 receptor is presented in FIG. 21 and Tables 10 and 11 below: […]

Chain of 5-HT2B receptor (P41595 whole entry): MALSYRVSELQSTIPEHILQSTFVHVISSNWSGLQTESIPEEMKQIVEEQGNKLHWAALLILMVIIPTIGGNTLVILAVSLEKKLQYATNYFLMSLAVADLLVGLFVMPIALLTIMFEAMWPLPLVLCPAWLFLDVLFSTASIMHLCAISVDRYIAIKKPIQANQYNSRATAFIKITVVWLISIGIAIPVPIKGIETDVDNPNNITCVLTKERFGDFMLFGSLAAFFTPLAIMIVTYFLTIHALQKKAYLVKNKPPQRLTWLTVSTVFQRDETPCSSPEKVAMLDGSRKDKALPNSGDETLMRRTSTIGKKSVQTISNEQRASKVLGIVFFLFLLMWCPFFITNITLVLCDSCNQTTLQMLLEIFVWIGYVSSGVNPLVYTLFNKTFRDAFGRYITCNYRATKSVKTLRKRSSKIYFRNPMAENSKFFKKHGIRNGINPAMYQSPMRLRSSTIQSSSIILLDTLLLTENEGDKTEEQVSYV

Molecule: SB 206553 [reference compound]
- Ki (5-HT2B receptor; 5-HT2B receptor, competition binding curve, SB 206553 as reference, read-out: Ki (Table 12)): 9.79 nM

- Ki (5-HT7 receptor): 6.3 nM
- selectivity for 5-HT7 vs next most sensitive receptor, σ1 (5-HT7 receptor): ~75 fold
- Ki (5-HT1A receptor): > 10000 nM
Molecule: CC12CN(c3ccccc3)c3ccccc3C1CCN2 (stereo not shown) [Compound 4i]
- activity across the additional GCPR investigated [1]: minimal activity

- 5-HT7 potency, in words (5-HT7 receptor): further enhanced
Molecule: CN1CC[C@H]2c3ccccc3N(c3ccccc3)C[C@]21C [Compound 10c]

- 5-HT7 potency, in words (5-HT7 receptor): removed activity
Molecule: CC(=O)N1CC[C@H]2c3ccccc3N(c3ccccc3)C[C@]21C [Compound 11c]

Molecule: C[C@@]12COc3cc(O)ccc3[C@@H]1CCN2 [Compound 4d]
- σ1 binding, in words (σ1 receptor): detrimental to activity

Molecule: Cc1cc(C)c2c(c1)OC[C@@]1(C)NCC[C@@H]21 [Compound 4f]
- 5-HT2B binding, in words (5-HT2B receptor): enhanced 5-HT2B binding

Molecule: C[C@@]12COc3cc(OCc4ccccc4)ccc3[C@@H]1CCN2 [Compound 4c]
- σ1 binding, in words (σ1 receptor): potent σ1 ligand
